In PubChem BioAssay (NCI):
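Five compound concentrations were applied to cells in 96-well plates for 48 hours; endpoints were derived by simple linear interpolation of the resulting dose-response curve. GI50 = concentration required for 50% inhibition of growth. The concentration for full growth arrest is given as TGI.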

Experiments:
Test in all cases: growth of human tumour cells (NCI), 48 h
[1] = system: DU-145 prostate
[2] = system: HCT-116 colon
[3] = system: M14 melanoma
[4] = system: NCI-H226 lung
[5] = system: NCI/ADR-RES ovarian
[6] = system: SK-MEL-2 melanoma
[7] = system: SK-MEL-5 melanoma
[8] = system: SNB-75 CNS
[9] = system: T-47D breast
[10] = system: HOP-62 NSCLC

| SMILES | TGI [1] [µM] | TGI [2] [µM] | TGI [3] [µM] | TGI [4] [µM] | TGI [5] [µM] | TGI [6] [µM] | TGI [7] [µM] | TGI [8] [µM] | TGI [9] [µM] | TGI [10] [µM] | GI50 [1] [µM] | GI50 [10] [µM] | GI50 [4] [µM] | GI50 [5] [µM] | GI50 [7] [µM] | GI50 [8] [µM] | GI50 [9] [µM] | GI50 [2] [µM] | GI50 [3] [µM] |
| --- | --- | --- | --- | --- | --- | --- | --- | --- | --- | --- | --- | --- | --- | --- | --- | --- | --- | --- | --- |
| Cc1ccc(S(=O)(=O)c2c(O)c3ccc(O)c(C)c3oc2=O)cc1 | > 100 | > 100 | > 100 | > 100 | > 100 | > 100 | > 100 | > 100 | > 100 |  |  |  |  |  |  |  |  |  |  |
| COC(=O)C1=C(C)NC(C)=C(C(=O)OC)C1c1cccc(N=O)c1 | 29.7 | 23.9 | 27 | 37.8 | 51 | 30.9 | 29.8 |  | 40.4 | 56.2 |  |  |  |  |  |  |  |  |  |
| COc1ccc(OC)c(NC(=O)C(=O)C(C(=O)c2ccccc2F)C2OC(=O)c3ccccc32)c1 (centres undefined) |  | > 100 | > 100 | 54.5 |  | > 100 | > 100 | > 100 |  | > 100 |  |  |  |  |  |  |  |  |  |
| CC(C)=CCC12Cc3ccc(O)cc3C(C(C)CN1)C2C (centres undefined) | > 100 | > 100 | 51.5 | > 100 | > 100 |  |  | > 100 | > 100 | > 100 |  |  |  |  |  |  |  |  |  |
| Cc1cc(OCc2nnc3sc(NC(=O)c4ccccc4)nn23)ccc1Cl | 58.4 | > 100 | > 100 | > 100 | > 100 | 80.5 | > 100 |  | > 100 | 48.2 |  |  |  |  |  |  |  |  |  |
| Cc1cccc(NS(=O)(=O)c2ccc(N=Nc3c(O)c(C(=O)O)cc4ccccc34)cc2)n1 |  | > 100 | > 100 | > 100 | > 100 | > 100 | > 100 | > 100 |  | > 100 |  |  |  |  |  |  |  |  |  |
| CC(=O)OC1CC2(O)C(CCC3(C)C(c4ccc(=O)oc4)CCC32O)C2(C)C1=CC(O)C1OC12 (centres undefined) |  | 0.216 |  | 0.643 | 0.284 | 0.222 | 0.0435 | 0.3 |  | 0.172 |  |  |  |  |  |  |  |  |  |
| COc1ccc(OC/C(N=Cc2ccncc2)=N/NC(=O)c2ccncc2)cc1 | > 100 | > 100 | > 100 | > 100 | > 100 | > 100 |  |  | > 100 | > 100 |  |  |  |  |  |  |  |  |  |
| C[C@H](c1ccccc1)N1C(=O)[C@@H](OCc2ccccc2)[C@H]1[C@H](COC(=O)COCc1ccccc1)OCc1ccccc1 | > 100 | > 100 | > 100 | 89.4 |  | > 100 | > 100 | > 100 |  | > 100 |  |  |  |  |  |  |  |  |  |
| Cc1cnc2[nH]c(-c3cccc(F)c3)cc(=O)c2c1 | 1.3 |  |  | 4.43 | 0.0395 |  |  | > 100 | > 100 | > 100 |  |  |  |  |  |  |  |  |  |
| N#Cc1nc(CCCN2C(=O)c3ccccc3C2=O)oc1N | > 100 | > 100 | > 100 | > 100 | > 100 | > 100 | > 100 |  | > 100 | > 100 |  |  |  |  |  |  |  |  |  |
| O=C1/C(=C/c2ccncc2)C(n2cccc2)c2c(Br)sc(Br)c21 (centres undefined) | 12.9 | 10.4 |  |  | 51.2 | 6.56 | 27.6 | 9.79 | 16.4 | 11.3 |  |  |  |  |  |  |  |  |  |
| CNC(=S)NNc1ncnc2c1c(-c1ccc(Cl)cc1)cn2-c1ccc(C)cc1 | 43.4 | 17.1 | 26.5 | 57.5 | 34.4 | 27.7 | 20.8 |  | 24.1 | 39.2 |  |  |  |  |  |  |  |  |  |
| CN(C)CCNc1c([N+](=O)[O-])sc2ccc(Cl)cc12 | > 100 |  | > 100 | 66 | > 100 | > 100 | > 100 | 43 | > 100 | > 100 |  |  |  |  |  |  |  |  |  |
| c1c(N2CCOCC2)ssc1=[N+]1CCOCC1 |  | > 100 | > 100 | > 100 |  | > 100 | > 100 | > 100 |  | > 100 |  |  |  |  |  |  |  |  |  |
| Nc1c(S(N)(=O)=O)cc(S(N)(=O)=O)cc1S(N)(=O)=O | > 100 | > 100 | > 100 | > 100 | > 100 |  | > 100 | > 100 | > 100 | > 100 |  |  |  |  |  |  |  |  |  |
| Clc1ccc(OCc2nnc(COc3ccc(OCc4nnc(COc5ccc(Cl)cc5Cl)o4)c(Cl)c3)o2)c(Cl)c1 | > 100 | > 100 | > 100 | > 100 | 66.7 | > 100 | > 100 |  | > 100 | > 100 |  |  |  |  |  |  |  |  |  |
| CCN(CCCCCCCCCCN1CC(=O)N(CCCCCCCCCCN(CC)Cc2ccccc2OC)CC1=O)Cc1ccccc1OC | 2.78 |  |  | 3.94 | 3.24 |  | 2.7 | 11.8 | 6.33 | 3.05 | 1.39 | 1.56 | 1.96 | 1.64 | 1.36 | 2.68 | 1.99 |  |  |
| O=c1[nH]c(=O)n(C2CC(O)C(CO)O2)cc1OC/C=C/Cc1ccccc1 (centres undefined) | > 100 | > 100 | > 100 | > 100 | > 100 |  | > 100 | > 100 | > 100 | > 100 |  |  |  |  |  |  |  |  |  |
| CCOC(=O)Cn1nnc2cc(Nc3c(C)[n+]([O-])c4cc(F)c(OCC)cc4[n+]3[O-])ccc21 | > 100 | > 100 | > 100 | > 100 | > 100 | > 100 | > 100 |  | > 100 | 89.5 |  |  |  |  |  |  |  |  |  |
| CCOc1snc(C(Cl)(Cl)Cl)c1Cl | > 100 | 89.2 | > 100 | 32.5 |  |  | 21.1 | 54.9 |  | > 100 |  |  |  |  |  |  |  |  |  |
| CC(C)(C)c1cc(/C=C2/NC(=O)NC2=O)cc(C(C)(C)C)c1O | 30.3 | 30.4 |  | 33 | 34.1 | 27.2 | 27 | 25.2 | 11.8 | 33.1 |  |  |  |  |  |  |  |  |  |
| O=C1/C(=C/c2ccc(Cl)cc2)CCCc2ccc(F)cc21 |  | > 100 | 39.2 | 41.8 | 73.5 |  | 31.3 | > 100 |  |  |  |  | 16.8 | 26.6 | 17.4 | 48.3 |  | > 100 | 11.6 |
